# Key:
# Sarcoma 180 ascites = assay: S180a screening (Sarcoma 180 ascites tumor model), increase in life span; type: in vivo, CFW mice; settings: for Surv.: survivors on day of evaluation
# Description: CFW mice, averaging 20 g, are innoculated on day zero with 0.2 mL of a freshly prepared saline suspension (0.15 M NaCI) containing 1 × 10^7 tumor cells/mL, or a total of 2 x 10^6 cells. On day I, the mice are injected with the test compound in the selected medium (usually water). Six mice are used per test dose, with six doses normally being run.
# Also, on day one, two types of controls (6 mice/set are employed: (1) Normal (1 set): 0.5 mL of the solvent medium used for the test compound, and (2) Positive control (1 set): cis-[Pt(NH3)2Cl2] in saline at 8 mg/kg.
# The effectiveness of a compound is measured in terms of the increase in life span (ILS) of the test animals relative to the controls calculated from the day of tumor inoculation (day zero). The day of evaluation is arbitrarily taken as that day corresponding to twice the mean life-span of the normal controls. This sets a practical upper limit of 100% on the ILS attainable. For calculation purposes, survivors on the day of evaluation are considered to have died on that day. The % ILS is formulated as: [formula]
# ILS values above 50% represent activity. The positive controls must have an ILS of ≧ 50% for the test to be valid.
# [1] = Toxicity testing: hematocrit and average cage weights; type: in vivo, mice; settings: 240 mg/kg
# Description: (PVA = 2-phosphonovalerate). Based on the screening results, initial dosing was established at approximately twice the peak active dose in the SI80 screen. Both a cisplatin control, also run at twice the peak active dose, and a negative control experiment, were run for comparative purposes. BUN was measured by using a kit manufactured by Harleco (No. 64667). WBC was measured by lysing the red blood cells with 3% acetic acid and counting the white cells using a haemocytometer.
# Data obtained for Na[Pt(trans-R,R-dach)(PVA)] was taken at 240 mg/kg. […] Myelosuppresion however, was apparent. The WBC depression for this compound was 63% relative to controls. […] Average cage weights for the test mice were also taken over the seven day test period. The mice lost an average of 5.9 g (27.3%) of body weight over this time.
# [2] = Toxicity testing: BUN (kidney toxicity); type: in vivo, mice
# Description: (§1) (PVA = 2-phosphonovalerate). Based on the screening results, initial dosing was established at approximately twice the peak active dose in the SI80 screen. […] WBC was measured by lysing the red blood cells with 3% acetic acid and counting the white cells using a haemocytometer.
# (§2) Data obtained for Na[Pt(trans-R,R-dach)(PVA)] was taken at 240 mg/kg. […] Average cage weights for the test mice were also taken over the seven day test period.
# L1210 leukemia = assay: L1210 screening (L1210 leukemia tumor model), increase in life span; type: in vivo, Female CDF1 mice; settings: for Surv.: survivors
# Description: Female CDF1 mice (16-22 g) are injected with a suspension of 1 x 10^6 tumor cells in 0.5 mL of 0.15 M saline on day zero. On day one, the mice receive the test compound in 0.5 mL of the chosen medium (usually water). Six mice were used for each test dose, with six doses normally being run. Normal controls (six mice) receive tumor on day zero and 0.5 mL of the test medium on day one. Positive controls (six mice) receive tumor on day zero and 8 mg/kg cisplatin in 0.5 mL of 0.15 M saline on day one. All compound doses are adjusted for the actual average weight of the mice involved. Testing is terminated at three times the normal control mean life span. The percent increase in lifespan (ILS) is calculated as follows: %ILS = [(mean life span (test)/mean life span(control)-I]x100 A 25% ILS or greater indicates activity. The maximum possible ILS is 200%. The positive control must have an ILS of S 25% for the test to be considered valid.
# The tumor line is maintained by transfer of 5 x 10^4- cells in 0.1 mL saline every seven days. DBA/2 (18-22 g) mice are employed for tumor transfers
# [3] = Toxicity testing: WBC (myelosuppression); type: in vivo, mice
# Description: as §1, §2
# [4] = dose 40.00 mg/kg on day 1, vehicle water
# [5] = dose 80.00 mg/kg on day 1, vehicle water
# [6] = dose 160.00 mg/kg on day 1, vehicle water
# [7] = dose 240 mg/kg, change vs. controls
# [8] = dose 10.00 mg/kg on day 1, vehicle water
# [9] = dose 20.00 mg/kg on day 1, vehicle water
# [10] = dose 320.00 mg/kg on day 1, vehicle water
smiles,measurement,setting,value
"CCCC1C(=O)[O][Pt][O]P1(=O)[O-].NC1CCCCC1N.[Na+] (mixture of isomers) [Ex 18, Na[Pt(trans-R,R-dach)(2-phosphonovaierate)]]",%ILS,Sarcoma 180 ascites; [4],77%
same,Surv.,Sarcoma 180 ascites; [4],1/ 6
same,%ILS,Sarcoma 180 ascites; [5],92%
same,Surv.,Sarcoma 180 ascites; [5],5/ 6
same,%ILS,Sarcoma 180 ascites; [6],44%
same,Surv.,Sarcoma 180 ascites; [6],1/ 6
same,hematocrits (ratio of packed red blood cells to volume of whole blood),[1],low hematocrits
same,BUN decrease vs. controls,[2]; 240 mg/kg,4%
same,average BUN level,"[2]; 240 mg/kg, test mice",34.7 mg/dL
same,BUN,[2]; [7],-4%
same,kidney toxicity,[2]; judged from BUN elevation,not kidney toxic at this dose
same,%ILS,L1210 leukemia; [8],36%
same,Surv.,L1210 leukemia; [8],0/ 6
same,%ILS,L1210 leukemia; [9],25%
same,Surv.,L1210 leukemia; [9],0/ 6
same,%ILS,L1210 leukemia; [4],33%
same,Surv.,L1210 leukemia; [4],0/ 6
same,%ILS,L1210 leukemia; [5],33%
same,Surv.,L1210 leukemia; [5],0/ 6
same,%ILS,L1210 leukemia; [6],109%
same,Surv.,L1210 leukemia; [6],0/ 6
same,%ILS,L1210 leukemia; [10],24%
same,Surv.,L1210 leukemia; [10],1/ 6
same,WBC depression relative to controls,[3]; 240 mg/kg,63%
same,WBC,[3]; [7],-63%

# — patent EP0290169A2, “Diamineplatinum complexes with phosphonocarboxylate and substituted phosphonocarboxylate ligands as antitumor agents” (ENGELHARD CORPORATION, priority 1987, dated 1988)
